# “Also recorded” adds a separate entry of the source. Read-outs that look alike come from different tables or passages of the source.
# Columns and labels:
# [1] = system: Aβ40 and Aβ42 production, CHO cells stably transfected with human APP695; test: Secreted Aβ40/Aβ42 ELISA in CHO cells expressing human APP (CHO-APP cells); format: cell-based, Chinese hamster; parameters: key to Aβ42-lowering activity: Aβ42-lowering activity (“Yes”); no profound effects (“No”); non-determined (“ND”); Ginsenosides that affected cell viability are indicated as “Cytotoxic.”; settings: for Aβ42-lowering activity: summary of Tables 1-3; for levels of Aβ42 / production of Aβ42: CHO cells expressing wild-type human APP, PPT/PT; for inhibitory effects on Aβ40 production / inhibitory effects on Aβ42 production: ginsenosides of unprocessed ginseng, 8 hours, FIG. 10 (50 μM)
# Protocol: The CHO cells were treated with the indicated compounds (at 50 μg/ml) for 8 hrs. Aβ42 levels in the medium were measured by ELISA and normalized to intracellular full-length APP.
# The potential effects of ginsenosides and their analogues in treating AD were examined. First, a number of ginsenosides were screened based on their effects on Aβ generation. The effects of various ginsenosides on Aβ (e.g., Aβ40 and Aβ42) production was initially accessed by incubating the Chinese hamster ovary (CHO) cells expressing human APP(CHO-APP cells) with each ginsenoside purified from unprocessed ginseng (known as “white ginseng”). These representative ginsenosides included Rb1, Rb2, Rc, Rd, Re, Re, Rg1 and Rg2 and differ in their side chains and sugar moieties.
# After 8 hours of incubation, the media were collected and the levels of secreted Aβ40 and Aβ42 were determined by ELISA.
# [2] = system: Aβ40 and Aβ42 production, CHO-APP/PS1 cells; test: Secreted Aβ ELISA in CHO-APP/PS1 cells (wild-type PS1); format: cell-based, Chinese hamster; settings: 50 μM, 8 hrs, FIG. 11; for secretion of Aβ42: heat-processing derived ginsenosides
# Protocol: The effects of Rg5 on the Aβ42 generation were much smaller as compared to Rgk351 and Rk1.
# FIG. 10 depicts the effects of native ginsenosides on Aβ42 production. CHO cells stably transfected with human APP695 together with either wild-type (A, CHO-APP/PS1 cells) or ΔE9 FAD mutant (B, CHO-APP/ΔE9PS1 cells) forms of PS1 were used. Cells were treated with the indicated compounds (at 50 μM) for 8 hrs. Levels of secreted Aβ40 and Aβ42 in the medium were determined by ELISA and normalized to intracellular full-length APP. In CHO-APP/PS1 cells, average Aβ amounts in control samples were 320 pM for Aβ40 and 79 pM for Aβ42. The relative levels of Aβ and Aβ42 were normalized to values obtained from non-treated and vehicle-treated cells and are shown as % to control+s.d.). One of three representative experiments are shown.
# CHO-APP/PS1 (A) and CHO-APP/ΔE9PS1 (B) cells were treated with the indicated compounds at 50 μM for 8 hrs and the levels of secreted Aβ40 and Aβ42 were determined as described in FIG. 1. […] The PS1-ΔE9 FAD mutation diminished the Aβ42 response to Rk1 treatment (B).
# [3] = molecular target: T1, γ-secretase cleavage of Notch1 (NICD) (Homo sapiens, UniProt P49768); test: Cell-free generation of NICD from membrane fractions of 293 cells overexpressing Notch-AE; format: biochemical
# T1 construct: Membrane fractions isolated from 293 cells overexpressing either APP (A), Notch-AE (B) or p75-AE (C); endogenous in cells; host or cells: 293 cells (membrane fractions); only the substrates APP, Notch-ΔE and p75-ΔE are overexpressed
# Protocol: (§1) Membrane fractions isolated from 293 cells overexpressing either APP (A), Notch-AE (B) or p75-AE (C) and incubated in the presence of indicated compounds: Compound E (CpdE, general γ-secretase inhibitor), Rgk351, Rk1 and sulindac sulfide (SS).
# [4] = molecular target: T2, γ-secretase cleavage of p75 neurotrophin receptor (p75-ICD) (Homo sapiens, UniProt P49768); test: Cell-free generation of p75-ICD from membrane fractions of 293 cells overexpressing p75-AE; format: biochemical
# T2 construct: Membrane fractions isolated from 293 cells overexpressing either APP (A), Notch-AE (B) or p75-AE (C); endogenous in cells; host or cells: 293 cells (membrane fractions); only the substrates APP, Notch-ΔE and p75-ΔE are overexpressed
# Protocol: as §1
# [5] = molecular target: T3, γ-secretase cleavage of APP (AICD) (Homo sapiens, UniProt P49768); test: Cell-free generation of AICD from membrane fractions of 293 cells overexpressing APP; format: biochemical
# T3 construct: Membrane fractions isolated from 293 cells overexpressing either APP (A), Notch-AE (B) or p75-AE (C); endogenous in cells; host or cells: 293 cells (membrane fractions); only the substrates APP, Notch-ΔE and p75-ΔE are overexpressed
# Protocol: as §1
# [6] = system: Aβ40 and Aβ42 generation, Neuro2a-SW cells; test: Aβ generation in Neuro2a cells expressing human Swedish mutant APP (Neuro2a-SW); format: cell-based, mouse; settings: FIG. 16; for levels of Aβ42 / production of Aβ42: Neuro2a-SW
# Excerpt: FIG. 16 depicts the effects of two major metabolites of ginsenosides, including 20(S)-protopanaxatriol (PPT) and 20(S)-protopanaxadiol (PPD) on Aβ42 generation. 20(S)-panaxatriol (PT) and 20(S)-panaxadiol (PD) are the artificial derivatives of PPT and PPPD, respectively.
# Ginsenosides are metabolized by human intestinal bacteria after oral administration of ginseng extract (Kobayashi K., et al., Metabolism of ginsenoside by human intestinal bacteria [II] Ginseng Review 1994; 18: 10-14; Hasegawa H., et al., Main ginseng saponin metabolites formed by intestinal bacteria. Planta Med. 1996; 62: 453-457.). Therefore, the effects of two major metabolites of ginsenosides, including 20(S)-protopanaxatriol (PPT) and 20(S)-protopanaxadiol (PPD) on Aβ42 generation were tested. 20(S)-panaxatriol (PT) and 20(S)-panaxadiol (PD) are the artificial derivatives of PPT and PPPD, respectively.
# [7] = system: Aβ42 production in mammalian cells; settings: Tae-Wan Kim et al.; cited from earlier work
# [8] = molecular target: γ-secretase (Homo sapiens, UniProt P49768); test: Cell-free γ-secretase assay (CHAPSO-solubilized membrane fractions, recombinant substrates, Aβ ELISA); format: biochemical; settings: cell-free γ-secretase assay, FIG. 15 (100 μM in A)
# Protocol: (A) CHAPSO-solubilized membrane fractions were incubated with recombinant γ-secretase substrates together with the indicated compounds (at 100 μM) and the levels of Aβ42 and Aβ40 were determined by ELISA as described (27-29). (B) Dose-response of Aβ40 and Aβ42-lowering activity of Rk1 and (20S)Rg3 in a cell-free γ-secretase assay.
# Next, the inhibitory effects of Rk1 and (20S)Rg3 on Aβ generation in an in vitro γ-secretase assay was studied. […] In contrast, naproxen, an NSAID without Aβ42-lowering activity, had no effects on Aβ42 production (FIG. 15A).
structure (smiles),measurement,setting,value
CC(C)=CCCC(C)(O)C1CCC2(C)C1C(O)CC1C3(C)CCC(OC4OC(CO)C(O)C(O)C4OC4OC(CO)C(O)C(O)C4O)C(C)(C)C3CCC12C [(20R)Rg3],"generation of Aβ42 (Aβ42 levels in the medium, ELISA, normalized to intracellular full-length APP)","[1]; 50 μg/ml, 8 hrs, FIG. 4",reduce the generation of Aβ42
same,Aβ42-lowering activity,[1],Yes
same,potency of Aβ42-reducing activity (rank),[2],Rk1>/=(20S)Rg3>Rg5>(20R)Rg3
same,secretion of Aβ42,[2],not affected
C[C@H](NC(=O)Cc1cc(F)cc(F)c1)C(=O)N[C@H]1N=C(c2ccccc2)c2ccccc2N(C)C1=O [Compound E],cell-free generation of NICD,[3],efficiently inhibited
same,cell-free generation of NICD,[3]; listed as Cpd.E,Very low amounts
same,cell-free generation of p75-ICD,[4],efficiently inhibited
same,cell-free generation of p75-ICD,[4]; listed as Cpd.E,Very low amounts
same,cell-free generation of AICD,[5],efficiently inhibited
same,cell-free generation of AICD,[5]; listed as Cpd.E,Very low amounts
"CC1(C)CCC[C@](C)([C@H]2CC[C@]3(C)[C@@H]2[C@H](O)C[C@@H]2[C@@]4(C)CC[C@H](O)C(C)(C)[C@@H]4CC[C@]23C)O1 [PD, 20(S)-panaxadiol]",inhibitory effects on Aβ40 generation,[6],did not confer any inhibitory effects
same,inhibitory effects on Aβ42 generation,[6],did not confer any inhibitory effects
"CC(C)=CCC[C@](C)(O)[C@H]1CC[C@]2(C)[C@@H]1[C@H](O)C[C@@H]1[C@@]3(C)CC[C@H](O)C(C)(C)[C@@H]3CC[C@]12C [PPD, 20(S)-protopanaxadiol]",Aβ42-lowering activity,[1],No
same,inhibitory effects on Aβ40 generation,[6],did not confer any inhibitory effects
same,inhibitory effects on Aβ42 generation,[6],did not confer any inhibitory effects
"CC(C)=CCC[C@](C)(O)[C@H]1CC[C@]2(C)[C@@H]1[C@H](O)C[C@@H]1[C@@]3(C)CC[C@H](O)C(C)(C)[C@@H]3[C@@H](O)C[C@]12C [PPT, 20(S)-protopanaxatriol]",levels of Aβ42,[1],without affecting
same,production of Aβ42,[1],reduced the production of Aβ42
same,Aβ42-lowering activity,[1],Yes
same,levels of Aβ42,[6],without affecting
same,production of Aβ42,[6],reduced the production of Aβ42
"CC1(C)CCC[C@](C)([C@H]2CC[C@]3(C)[C@@H]2[C@H](O)C[C@@H]2[C@@]4(C)CC[C@H](O)C(C)(C)[C@@H]4[C@@H](O)C[C@]23C)O1 [PT, 20(S)-panaxatriol]",levels of Aβ42,[1],without affecting
same,production of Aβ42,[1],reduced the production of Aβ42
same,levels of Aβ42,[6],without affecting
same,production of Aβ42,[6],reduced the production of Aβ42
CC(C)=CCC[C@](C)(O[C@@H]1O[C@H](CO[C@@H]2O[C@H](CO)[C@@H](O)[C@H](O)[C@H]2O)[C@@H](O)[C@H](O)[C@H]1O)[C@H]1CC[C@]2(C)[C@@H]1[C@H](O)C[C@@H]1[C@@]3(C)CC[C@H](O[C@@H]4O[C@H](CO)[C@@H](O)[C@H](O)[C@H]4O[C@@H]4O[C@H](CO)[C@@H](O)[C@H](O)[C@H]4O)C(C)(C)[C@@H]3CC[C@]12C [Rb1],inhibitory effects on Aβ40 production,[1],None
same,inhibitory effects on Aβ42 production,[1],None
same,Aβ42-lowering activity,[1],No
CC(C)=CCC[C@](C)(O[C@@H]1O[C@H](CO[C@@H]2OC[C@H](O)[C@H](O)[C@H]2O)[C@@H](O)[C@H](O)[C@H]1O)[C@H]1CC[C@]2(C)[C@@H]1[C@H](O)C[C@@H]1[C@@]3(C)CC[C@H](O[C@@H]4O[C@H](CO)[C@@H](O)[C@H](O)[C@H]4O[C@@H]4O[C@H](CO)[C@@H](O)[C@H](O)[C@H]4O)C(C)(C)[C@@H]3CC[C@]12C [Rb2],inhibitory effects on Aβ40 production,[1],None
same,inhibitory effects on Aβ42 production,[1],None
same,Aβ42-lowering activity,[1],No
CC(C)=CCC[C@](C)(O[C@@H]1O[C@H](CO[C@@H]2OC[C@@H](O)[C@H](O)[C@H]2O)[C@@H](O)[C@H](O)[C@H]1O)[C@H]1CC[C@]2(C)[C@@H]1[C@H](O)C[C@@H]1[C@@]3(C)CC[C@H](O[C@@H]4O[C@H](CO)[C@@H](O)[C@H](O)[C@H]4O[C@@H]4O[C@H](CO)[C@@H](O)[C@H](O)[C@H]4O)C(C)(C)[C@@H]3CC[C@]12C [Rb3],Aβ42-lowering activity,[1],No
CC(C)=CCC[C@](C)(O[C@@H]1O[C@H](CO)[C@@H](O)[C@H](O)[C@H]1O)[C@H]1CC[C@]2(C)[C@@H]1[C@H](O)C[C@@H]1[C@@]3(C)CC[C@H](O)C(C)(C)[C@@H]3[C@@H](O[C@@H]3O[C@H](CO)[C@@H](O)[C@H](O)[C@H]3O)C[C@]12C [Rg1],inhibitory effects on Aβ40 production,[1],None
same,inhibitory effects on Aβ42 production,[1],None
same,Aβ42-lowering activity,[1],No
same,amyloid-reducing activity in vitro,[7],no amyloid-reducing activity in vitro
CC(C)=CCC[C@](C)(O)[C@H]1CC[C@]2(C)[C@@H]1[C@H](O)C[C@@H]1[C@@]3(C)CC[C@H](O)C(C)(C)[C@@H]3[C@@H](O[C@@H]3O[C@H](CO)[C@@H](O)[C@H](O)[C@H]3O[C@@H]3O[C@@H](C)[C@H](O)[C@@H](O)[C@H]3O)C[C@]12C [Rg2],inhibitory effects on Aβ40 production,[1],None
same,inhibitory effects on Aβ42 production,[1],None
same,Aβ42-lowering activity,[1],No
CC(C)=CCC[C@](C)(O)[C@H]1CC[C@]2(C)[C@@H]1[C@H](O)C[C@@H]1[C@@]3(C)CC[C@H](O)C(C)(C)[C@@H]3[C@@H](O[C@@H]3O[C@H](CO)[C@@H](O)[C@H](O)[C@H]3O)C[C@]12C [Rh1],Aβ42-lowering activity,[1],No
same,secretion of Aβ42,[2],not significant; also recorded: not affected
CC(C)=CC/C=C(\C)[C@H]1CC[C@]2(C)[C@@H]1[C@H](O)C[C@@H]1[C@@]3(C)CC[C@H](O)C(C)(C)[C@@H]3[C@@H](O[C@@H]3O[C@H](CO)[C@@H](O)[C@H](O)[C@H]3O)C[C@]12C [Rh4],Aβ42-lowering activity,[1],No
C=C(CCC=C(C)C)[C@H]1CC[C@]2(C)[C@@H]1[C@H](O)C[C@@H]1[C@@]3(C)CC[C@H](O)C(C)(C)[C@@H]3[C@@H](O[C@@H]3O[C@H](CO)[C@@H](O)[C@H](O)[C@H]3O)C[C@]12C [Rk3],Aβ42-lowering activity,[1],No
"COc1ccc2cc([C@H](C)C(=O)O)ccc2c1 [naproxen, reference compound]",Aβ42 generation in vitro,[8],no effects
CSc1ccc(/C=C2/C(C)=C(CC(=O)O)c3cc(F)ccc32)cc1 [sulindac sulfide],cell-free generation of NICD,[3]; listed as SS,abundantly produced
same,cell-free generation of NICD,[3]; listed as sulinac sulfide,did not affect
same,cell-free generation of p75-ICD,[4]; listed as SS,abundantly produced
same,cell-free generation of p75-ICD,[4]; listed as sulinac sulfide,did not affect
same,cell-free generation of AICD,[5]; listed as SS,abundantly produced
same,cell-free generation of AICD,[5]; listed as sulinac sulfide,did not affect
same,Aβ42 generation in vitro,[8],potently inhibited
same,Aβ40 production,"[1]; overnight treatment, FIG. 12B",slightly affected

# — patent US20060014704A1, “Compounds and their preparation for the treatment of Alzheimer's disease by inhibiting beta-amyloid peptide production” (priority 2004, published 2006)
